Values of other authors, collected in patent publication US20110293714A1, “PHARMACEUTICAL COMPOSITIONS SUITABLE FOR ORAL ADMINISTRATION OF DERIVATIZED INSULIN PEPTIDES” (priority 2008, published 2011).
Read-outs that look alike come from different tables or passages of the source.

Conditions: static electric fields or relatively low frequencies

Dielectric constant, ∈* (303.2 Kelvin) | Compound | Dielectric constant, ∈* (293.2 Kelvin)
27.5 | CC(O)CO (stereo not shown) [1,2-propanediol [propylene glycol], 1,2-propanediol] | –
– | CC(O)CCO (stereo not shown) [1,3-butanediol] | 28.8
– | OCCCO [1,3-propanediol] | 35.1
– | CCO [Ethanol] | 25.3
– | CC(C)O [Isopropanol] | 20.18
– | CO [Methanol] | 33.0
– | O [Water] | 80.1
